This note sets out measurements from patent US20250058082A1, “TRANSPERINEAL, TRANSRECTAL OR TRANSURETHRAL ADMINISTRATION OF ANTI-PROSTATE CANCER AGENTS FOR TREATING PROSTATE CANCER” (JESSENIUS FACULTY OF MEDICINE OF COMENIUS UNIVERSITY IN …, priority 2021, published 2025).

Series [1] has as its system canine prostate. As to conditions: for lesion volume: 1 cm porous segment, 2 h after injection.
Protocol: Intraprostatic ethanol injections were performed in eight Beagle dogs for acute experiments. Animals received premedication with medetomidin (0.004 mg/kg), metadon (0.3 mg/kg), and acepromazil (0.02 mg/kg). Anesthesia was induced with propofol (1.5-2 mg/kg) and maintained by propofol (10 mg/kg/hour) and fentanyl (0.24 mg/kg/hour). Prostate exposure was performed using lower midline abdominal incisions and blunt dissection of surrounding tissues. The porous needle was stabilized with a fixation apparatus attached to the operating table and was deployed with a protective sheath in the lateral lobe of the prostate. […] Where possible, the distal end of the sheath was kept at least 2 mm from the pseudocapsule. […] Injections in both lateral lobes of each canine were performed. […] In the remaining experiments, 0.5, 1, 1.5, or 2 ml was injected into each prostatic lobe. In five experiments, a needle with a 1 cm long microporous segment was used, while a 2 cm long segment was used in one experiment. The tissue resistance during injections was measured by including the pressure transduced between the pump and the needle. Two hours following the second injection, the animals were anaesthetised by an intramuscular injection of medetomidine and ketamine, followed by intravenous injection of pentobarbital, and euthanized using exsanguination.
Histology slides were converted to digital images.
A further series deals with human prostate. The series is described as follows: Transperineal intraprostatic EtOH injection in heart-beating cadaveric organ donors. As to conditions: for average volume of the lesion: five human prostates, 1 cm porous segment.
Series [2] concerns canine prostate. The series is described as follows: Chronic canine experiment: intraprostatic EtOH injection, four weeks observation, autopsy and histology.

Several values for one entry are separate records, joined by “and”; a condition that tells them apart may be missing. Identical values can stand only once. Like-named read-outs stand apart in the source and are kept apart here.

Regarding `CCO` [EtOH, ethanol], the lesion volume in the series with canine prostate [1] (0.5 ml EtOH injected per lobe) came out at 208±58 mm^3; in the series with canine prostate [1] (1.0 ml EtOH injected per lobe), 588±112 mm^3; with canine prostate [1] (1.5 ml EtOH injected per lobe), 791±338 mm^3; in the series on canine prostate [1] (2.0 ml EtOH injected per lobe), 1158±200 mm^3. Also, the “tissue infiltration with 2 cm porous segment needle” value in the series on canine prostate [1] (2 cm porous segment compared with 1 cm) is reported as “larger areas of tissue infiltration”. The “necrotic areas, share of the section” value in the series on canine prostate [1] (canine prostate section, FIG. 4) was “more than 80%”. Besides, the “extraprostatic leak during injection” value in the series on canine prostate [1] (dog, in vivo) is reported as “No extraprostatic leak”; with canine prostate [2] (chronic study), “free of exptraprostatic leak”. Further, in the series with canine prostate [1] (dog, in vivo), the prostatic pseudocapsule integrity result is “remained intact without evidence of disruption”. The entries for the “average volume of the lesion” value in the series with human prostate (2 ml injected per lobe) and in the series with human prostate (3 ml injected per lobe) were 0.978 mL and 1.742 mL, respectively. For the same compound, the “lesion size with 3 ml relative to 2 ml” value with human prostate (average, human prostates) stood at 1.78 ×. Moreover, the extraprostatic tissue injury result in the series with human prostate (human prostates) is recorded as “no evidence to the extraprostatic tissue injury was observed”. Further, the lesion localization result in the series with human prostate (human prostates) is reported as “In all cases the lesion was localized within the prostate”. The prostatic capsule integrity result with human prostate (human prostates) is on record as “remained intact”. Besides, the “transient increase in body temperature” value with canine prostate [2] (animals with wound swelling, lasted less than 24 hours) is 38.5 °C and 39 °C. For the same compound, the immediate complications result in the series with canine prostate [2] (chronic study) is reported as “No immediate complications occurred”. In addition, in the series with canine prostate [2] (chronic study, four weeks observation), the long-term complications result is “swelling of the wound in two animals and serous exudation in one animal”. In the series with canine prostate [2] (four weeks after injection), the “damage to adjacent structures at prostatectomy” value is reported as “no damage to adjacent structures”. In addition, the “tissue defects on whole mount sections” value in the series with canine prostate [2] (four weeks after injection, H&E) is “tissue defects (cavities) in all prostatic lobes injected with 1, 1.5, and 2 ml”. Also, the prostatic pseudocapsule area result in the series on canine prostate [2] (four weeks after injection, histology) is given as “showed no abnormalities”.
